Experimental data published in patent US12691112B2, “FGFR tyrosine kinase inhibitors for the treatment of urothelial carcinoma” (Janssen Pharmaceutica NV, priority 2019, dated 2026).

Tested on: subjects with metastatic or surgically unresectable urothelial cancer
Details: all-causality
Method: Study treatment was administered on 28-day cycles. […] Patients were randomized 1:1 to 28-day cycles to the following 2 regimens until a regimen was selected for further study: Regimen 1 (10 mg once daily intermittent (7 days on/7 days); Regimen 2 (6 mg once daily continuous). Randomization was stratified according to performance status (0 to 1 vs. 2), hemoglobin value (<10 vs. ≥10 g per dl), FGFR alteration type (mutation vs. fusion), prior treatment status (chemotherapy-resistant vs. chemotherapy naïve), and disease distribution (presence or absence of visceral [liver, lung, bone]metastases). Starting dose selection was based on phase 1 efficacy and tolerability.
Based on interim analysis and pharmacokinetic-pharmacodynamic modeling of serum phosphate levels, starting dose was increased to 8 mg per day continuous (Regimen 3). Thus, after interim analysis, this became a single-arm study. […] Treatment continued until disease progression or unacceptable adverse event(s) per investigator.
Safety was evaluated based on clinical laboratory tests, physical exams, electrocardiograms, and ophthalmology examinations. Adverse events and abnormalities were assessed by investigator and graded per NCI CTCAE v.4.0
Prophylactic measures were taken to minimize risk of common adverse events related to FGFR inhibition. To reduce risk of hyperphosphatemia, a low-phosphate diet was recommended for all patients (600 to 800 mg of dietary phosphate intake per day). To reduce the risk of skin effects, the application of alcohol-free emollient moisturizing cream and avoidance of unnecessary exposure to sunlight, soap, perfumed products, and hot baths was recommended. Patients were asked to keep their fingers and toes clean and nails trimmed to reduce risk of nail effects.
Additional ophthalmology examinations were performed if clinically indicated.

Structure (SMILES): COc1cc(OC)cc(N(CCNC(C)C)c2ccc3ncc(-c4cnn(C)c4)nc3c2)c1 [erdafitinib, N-(3,5-dimethoxy-phenyl)-N′-(1-methylethyl)-N-[3-(1-methyl-1H-pyrazol-4-yl)quinoxalin-6-yl]ethane-1,2-diamine]
- Pain in extremity, grade 1 (8 mg continuous, n = 99): 10 no.
- Pain in extremity, grade 2 (8 mg continuous, n = 99): 2 no.
- Pain in extremity, grade ≥ 3 (8 mg continuous, n = 99): 0 no.
- Paronychia, any grade (8 mg continuous, n = 99): 17 no.
- Paronychia, grade 1 (8 mg continuous, n = 99): 3 no.
- Paronychia, grade 2 (8 mg continuous, n = 99): 11 no.
- Paronychia, grade ≥ 3 (8 mg continuous, n = 99): 3 no.
- Peripheral edema, any grade (8 mg continuous, n = 99): 9 no.
- Peripheral edema, grade 1 (8 mg continuous, n = 99): 5 no.
- Peripheral edema, grade 2 (8 mg continuous, n = 99): 3 no.
- Peripheral edema, grade ≥ 3 (8 mg continuous, n = 99): 1 no.
- Pyrexia, any grade (8 mg continuous, n = 99): 13 no.
- Pyrexia, grade 1 (8 mg continuous, n = 99): 8 no.
- Pyrexia, grade 2 (8 mg continuous, n = 99): 5 no.
- Pyrexia, grade ≥ 3 (8 mg continuous, n = 99): 0 no.
- Retinal detachment, any grade (8 mg continuous, n = 99): 5 no.
- Retinal detachment, grade 1 (8 mg continuous, n = 99): 3 no.
- Retinal detachment, grade 2 (8 mg continuous, n = 99): 2 no.
- Retinal detachment, grade ≥ 3 (8 mg continuous, n = 99): 0 no.
- Stomatitis, any grade (8 mg continuous, n = 99): 57 no.
- Stomatitis, grade 1 (8 mg continuous, n = 99): 21 no.
- Stomatitis, grade 2 (8 mg continuous, n = 99): 26 no.
- Stomatitis, grade ≥ 3 (8 mg continuous, n = 99): 10 no.
- Urinary tract infection, any grade (8 mg continuous, n = 99): 16 no.
- Urinary tract infection, grade 1 (8 mg continuous, n = 99): 0 no.
- Urinary tract infection, grade 2 (8 mg continuous, n = 99): 11 no.
- Urinary tract infection, grade ≥ 3 (8 mg continuous, n = 99): 5 no.
- Vision blurred, any grade (8 mg continuous, n = 99): 17 no.
- Vision blurred, grade 1 (8 mg continuous, n = 99): 10 no.
- Vision blurred, grade 2 (8 mg continuous, n = 99): 7 no.
- Vision blurred, grade ≥ 3 (8 mg continuous, n = 99): 0 no.
- Vomiting, any grade (8 mg continuous, n = 99): 13 no.
- Vomiting, grade 1 (8 mg continuous, n = 99): 10 no.
- Vomiting, grade 2 (8 mg continuous, n = 99): 1 no.
- Vomiting, grade ≥ 3 (8 mg continuous, n = 99): 2 no.
- Weight decreased, any grade (8 mg continuous, n = 99): 15 no.
- Weight decreased, grade 1 (8 mg continuous, n = 99): 7 no.
- Weight decreased, grade 2 (8 mg continuous, n = 99): 8 no.
- Weight decreased, grade ≥ 3 (8 mg continuous, n = 99): 0 no.
- Abdominal pain, any grade (10 mg intermittent, n = 33): 5 no.
- Abdominal pain, grade 1 (10 mg intermittent, n = 33): 2 no.
- Abdominal pain, grade 2 (10 mg intermittent, n = 33): 2 no.
- Abdominal pain, grade ≥ 3 (10 mg intermittent, n = 33): 1 no.
- Alanine aminotransferase increased, any grade (10 mg intermittent, n = 33): 1 no.
- Alanine aminotransferase increased, grade 1 (10 mg intermittent, n = 33): 0 no.
- Alanine aminotransferase increased, grade 2 (10 mg intermittent, n = 33): 1 no.
- Alanine aminotransferase increased, grade ≥ 3 (10 mg intermittent, n = 33): 0 no.
- Alopecia, any grade (10 mg intermittent, n = 33): 4 no.
- Alopecia, grade 1 (10 mg intermittent, n = 33): 2 no.
- Alopecia, grade 2 (10 mg intermittent, n = 33): 2 no.
- Alopecia, grade ≥ 3 (10 mg intermittent, n = 33): 0 no.
- Anemia, any grade (10 mg intermittent, n = 33): 8 no.
- Anemia, grade 1 (10 mg intermittent, n = 33): 1 no.
- Anemia, grade 2 (10 mg intermittent, n = 33): 1 no.
- Anemia, grade ≥ 3 (10 mg intermittent, n = 33): 6 no.
- Arthralgia, any grade (10 mg intermittent, n = 33): 7 no.
- Arthralgia, grade 1 (10 mg intermittent, n = 33): 3 no.
- Arthralgia, grade 2 (10 mg intermittent, n = 33): 2 no.
- Arthralgia, grade ≥ 3 (10 mg intermittent, n = 33): 2 no.
- Aspartate aminotransferase increased, any grade (10 mg intermittent, n = 33): 2 no.
- Aspartate aminotransferase increased, grade 1 (10 mg intermittent, n = 33): 2 no.
- Aspartate aminotransferase increased, grade 2 (10 mg intermittent, n = 33): 0 no.
- Aspartate aminotransferase increased, grade ≥ 3 (10 mg intermittent, n = 33): 0 no.
- Asthenia, any grade (10 mg intermittent, n = 33): 10 no.
- Asthenia, grade 1 (10 mg intermittent, n = 33): 5 no.
- Asthenia, grade 2 (10 mg intermittent, n = 33): 3 no.
- Asthenia, grade ≥ 3 (10 mg intermittent, n = 33): 2 no.
- Back pain, any grade (10 mg intermittent, n = 33): 5 no.
- Back pain, grade 1 (10 mg intermittent, n = 33): 1 no.
- Back pain, grade 2 (10 mg intermittent, n = 33): 1 no.
- Back pain, grade ≥ 3 (10 mg intermittent, n = 33): 3 no.
- Blood creatinine increased, any grade (10 mg intermittent, n = 33): 4 no.
- Blood creatinine increased, grade 1 (10 mg intermittent, n = 33): 3 no.
- Blood creatinine increased, grade 2 (10 mg intermittent, n = 33): 1 no.
- Blood creatinine increased, grade ≥ 3 (10 mg intermittent, n = 33): 0 no.
- Conjunctivitis, any grade (10 mg intermittent, n = 33): 4 no.
- Conjunctivitis, grade 1 (10 mg intermittent, n = 33): 3 no.
- Conjunctivitis, grade 2 (10 mg intermittent, n = 33): 1 no.
- Conjunctivitis, grade ≥ 3 (10 mg intermittent, n = 33): 0 no.
- Constipation, any grade (10 mg intermittent, n = 33): 14 no.
- Constipation, grade 1 (10 mg intermittent, n = 33): 8 no.
- Constipation, grade 2 (10 mg intermittent, n = 33): 6 no.
- Constipation, grade ≥ 3 (10 mg intermittent, n = 33): 0 no.
- Decreased appetite, any grade (10 mg intermittent, n = 33): 11 no.
- Decreased appetite, grade 1 (10 mg intermittent, n = 33): 4 no.
- Decreased appetite, grade 2 (10 mg intermittent, n = 33): 6 no.
